Test results taken from patent publication US7705012B2, “Camptothecins conjugated in position 7 to cyclic peptides as cytostatic agents” (priority 2004, dated 2010).
Several values for one entry are separate records, joined by “and”; a condition that tells them apart may be missing. Identical values can stand only once. Like-named read-outs stand apart in the source and are kept apart here.

Columns and labels:
[1] = molecular target: T1, purified αvβ3 receptor (Homo sapiens, UniProt P05106+P06756); experiment: Binding to integrin αvβ3 receptors ([125I]echistatin competition)
T1 construct: purchased Chemicon CC1020
Procedure: Binding to Integrin αvβ3 Receptors
(§1) An aliquot of 100 μl was added to 96-well plates and incubated overnight at +4° C. Plates were washed once with buffer (50 mM Tris, pH 7,4, 100 mM NaCl, 2 mM CaCl2, 1 mM MgCl2, 1 mM MnCl2, 1% bovine serum albumin) and then incubated for another 2 hours at room temperature. Plates were washed twice with the same buffer and incubated for 3 hours at room temperature with the radioactive ligand [^125I]echistatin (Amersham Pharmacia Biotech) 0.05 nM in the presence of competition ligands. At the end of incubation, the wells were washed and the radioactivity determined using a gamma counter (Packard). Non-specific binding of the ligand was determined in the presence of excess cold echistatin (1 μM).
(§2) Evaluation of IC50 Parameters
(§3) The IC50 parameter was elaborated using “ALLFIT” software.

[2] = molecular target: T2, purified αvβ5 receptor (Homo sapiens, UniProt P06756+P18084); experiment: Binding to integrin αvβ5 receptors ([125I]echistatin competition)
T2 construct: purchased Chemicon CC1020
Procedure: Binding to Integrin αvβ5 Receptors
as §1, with “7.4,” for “7,4,”, “0.15” for “0.05”, “Non-specific ligand” for “Non-specific”, “binding” for “binding of the ligand”
as §2, §3

[3] = tested on: PC3 human prostate carcinoma; experiment: Cytotoxicity, sulphorodamine B test, PC3; format: cell-based; conditions: PC3 cells, 72 h, cell survival; read-out: PC3 IC50 ± SD
Procedure: (§4) Cytotoxicity of the Conjugates on Different Tumor Cell Lines
(§5) To evaluate the effect of the compound on cell survival, the sulphorodamine B test was used. PC3 human prostate carcinoma, A498 human renal carcinoma, A2780 human ovarian carcinoma cells were used. A2780 and PC3 tumor cells were grown RPMI 1640 containing 10% fetal bovine serum (GIBCO), whereas A498 tumor cells were grown in EMEM containing 10% fetal bovine serum (GIBCO).
(§6) Tumor cells were seeded in 96-well tissue culture plates (Corning) at approximately 10% of confluence and were allowed to attach and recover for at least 24 h. […] The plates were incubated for 72 h at 37° C. At the end of the treatment, the plates were washed by remotion of the surnatant and addition of PBS 3 times. 200 μl PBS and 50 μl of cold 80% TCA were added. The plates were incubated on ice for at least 1 h. TCA was removed, the plates were washed 3 times for immersion in distilled-water and dried on paper and at 40° C. for 5 min. Then 200 μl of 0.4% sulphorodamine B in 1% acetic acid were added. The plates were incubated at room temperature for other 30 min. Sulphorodamine B was removed, the plates were washed for immersion in 1% acetic acid for 3 times, then they were dried on paper and at 40° C. for 5 min. Then 200 μl Tris 10 mM were added, the plates were kept under stirring for 20 min. The survival cell was determined as optical density by a Multiskan spectrofluorimeter at 540 nm. The amount of cells killed was calculated as the percentage decrease in sulphorodamine B binding compared with control cultures. The IC50 values were calculated with the “ALLFIT” program.

[4] = tested on: A498 human renal carcinoma; experiment: Cytotoxicity, sulphorodamine B test, A498; format: cell-based; conditions: A498 cells, 72 h, cell survival; read-out: A498 IC50 ± SD
Procedure: as §4, §5, §6

[5] = tested on: A2780 human ovarian carcinoma cells; experiment: Cytotoxicity, sulphorodamine B test, A2780; format: cell-based; conditions: 72 h, cell survival, read-out: A2780 IC50 ± SD
Procedure: as §4, §5, §6

Compound | IC50 ([1]; inhibition of specific [125I]echistatin 0.05 nM binding, 3 hours at room temperature, read-out: αvβ3 IC50 ± SD) [nM] | IC50 ([2]; inhibition of specific [125I]echistatin 0.15 nM binding, 3 hours at room temperature, read-out: αvβ5 IC50 ± SD) [nM] | IC50 [3] [nM] | IC50 [4] | IC50 [5] [nM] | IC50 [1] [nM] | IC50 [2] [nM]
CC[C@@]1(O)C(=O)OCc2c1cc1n(c2=O)Cc2c-1nc1ccccc1c2/C=N\OCCNC(=O)CCC[C@@H]1NC(=O)[C@@H](Cc2ccccc2)NC(=O)[C@H](CC(=O)O)NC(=O)CNC(=O)[C@H](CCCNC(=N)N)NC1=O [ST2686] | 0.59 ± 0.01 | 0.37 ± 0.01 | 15000 ± 1500 | 3200 nM | 400 ± 30 | – | –
CC[C@@]1(O)C(=O)OCc2c1cc1n(c2=O)Cc2c-1nc1ccccc1c2/C=N\OCCNC(=O)CCC(=O)NCc1ccc(C[C@@H]2NC(=O)[C@@H](Cc3ccccc3)NC(=O)[C@H](CC(=O)O)NC(=O)CNC(=O)[C@H](CCCNC(=N)N)NC2=O)cc1 [ST2724] | – | – | 4700 ± 400 | 4300 nM | 160 ± 1 | 7.27 ± 0.06 | 8.39 ± 0.07
CC[C@@]1(O)C(=O)OCc2c1cc1n(c2=O)Cc2c-1nc1ccccc1c2/C=N\OCCNC(=O)COCCOCCOCC(=O)NCc1ccc(C[C@@H]2NC(=O)[C@@H](Cc3ccccc3)NC(=O)[C@H](CC(=O)O)NC(=O)CNC(=O)[C@H](CCCNC(=N)N)NC2=O)cc1 [ST2742] | – | – | 27000 ± 3900 | 740 nM and 700 nM | 180 ± 10 | 12.5 ± 2.1 | 6.5 ± 0.03
